Test results from patent US6846660B2, “Method of making an aldehyde dehydrogenase with gluconobacter” (Roche Vitamins Inc., priority 1997, dated 2005).
Where two headings read alike, the source gives them in different places.

Key:
Format in all cases: biochemical, Gluconobacter oxydans DSM No. 4025 (FERM BP-3812)
[1] = target: T1, aldehyde dehydrogenase (ADH) (Ketogulonicigenium vulgare, UniProt Q402A8)
T1 sequence (Q402A8 32-609): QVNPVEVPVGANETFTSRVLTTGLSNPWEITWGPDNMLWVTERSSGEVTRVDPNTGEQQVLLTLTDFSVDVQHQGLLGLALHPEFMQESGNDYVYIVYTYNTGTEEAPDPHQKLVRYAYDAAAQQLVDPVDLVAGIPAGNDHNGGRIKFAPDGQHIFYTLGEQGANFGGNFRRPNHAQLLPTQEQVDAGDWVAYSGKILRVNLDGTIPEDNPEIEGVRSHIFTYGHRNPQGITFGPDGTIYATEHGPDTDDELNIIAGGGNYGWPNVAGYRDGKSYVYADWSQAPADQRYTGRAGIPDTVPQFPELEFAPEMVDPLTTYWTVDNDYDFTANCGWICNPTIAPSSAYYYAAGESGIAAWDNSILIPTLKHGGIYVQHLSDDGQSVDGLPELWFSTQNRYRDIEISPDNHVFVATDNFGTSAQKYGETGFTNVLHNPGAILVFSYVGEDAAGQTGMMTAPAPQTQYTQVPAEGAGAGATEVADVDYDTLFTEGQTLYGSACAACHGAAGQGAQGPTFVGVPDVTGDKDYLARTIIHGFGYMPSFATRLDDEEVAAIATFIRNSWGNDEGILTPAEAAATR
Procedure: The reaction was started at 25° C. with L-sorbosone, and the enzyme activity was measured as the initial reduction rate of DCIP at 600 nm. […] The extinction coefficience of DCIP at pH 8.0 was taken as 15 mM^−1. A reference cuvette contained all the above constituents except L-sorbosone.
The effects of metal ions and inhibitors on the activity of the enzyme were examined by measuring the activity using the same assay method as described under 1) above. Each compound solution was stirred into the basal reaction mixture and the reaction was started with the addition of the enzyme.

[2] = target: T1, aldehyde dehydrogenase (ADH); assay: Identification of the oxidation products
Procedure: The reaction mixture containing the purified enzyme (1.56 mg), L-sorbosone (0.142 mg), PMS (0.008 mg) and PQQ (0.3 mg) in 40μl of the buffer was incubated for 1.5 hours at 30° C. The reaction product was analyzed on thin layer chromatography and HPLC. As a result, the reaction product was identified as 2-KGA in comparison with an authentic sample of 2-KGA.

[3] = target: T1, aldehyde dehydrogenase (ADH); assay: Electron acceptor suitability for oxidation of L-sorbosone to 2-KGA
From the text: This was affirmed by the failure of the enzyme to convert L-sorbosone to 2-KGA using oxygen as a possible electron acceptor. Furthermore, no oxygen consumption was detected in the reaction mixture as detected with a dissolved oxygen probe. […] However, other conventional electron acceptors can be utilized in conjunction with the enzyme of this invention. DCIP, PMS, ferricyanide and cytochrome c are preferred electron acceptors. There is no minimum amount of electron acceptor which must be present for at least some of the aldehyde substrate to be converted to its corresponding acid. However, the amount of substrate which can be oxidized depends on the amount of the particular electron acceptor and its electron accepting characteristics.

[4] = target: T1, aldehyde dehydrogenase (ADH); assay: Prosthetic group: PQQ requirement of the purified enzyme; settings: added to basal reaction mixture without PQQ
[5] = products of the oxidation of the substrates of Table 1A
[6] = oxidation of L-sorbosone to 2-KGA by purified ADH

## O.O.O.O.O.O.[Cl-].[Cl-].[Co+2] [CoCl2.6H2O]
[1]
  Relative activity: 76.0%
  effect on enzyme activity (in words): inhibited the enzyme activity

## O=CC(=O)[C@@H](O)[C@H](O)[C@@H](O)CO [L-Sorbosone]
[2]; [5]
  Product: 2-KGA
[2]; purified enzyme, PMS, PQQ, 1.5 hours at 30 °C, thin layer chromatography and HPLC
  reaction product identified: 2-KGA

## O=C(O)CI [Monoiodoacetate]
[1]
  Relative activity: 52.2%

## COS(=O)(=O)[O-].C[n+]1c2ccccc2nc2ccccc21 [PMS, phenazine methosulfate]
[3]; [6]
  suitability as electron acceptor: oxidizes L-sorbosone to 2-KGA in the presence of electron acceptors

## O.O.[Ca+2].[Cl-].[Cl-] [CaCl2.2H2O]
[1]
  Relative activity: 204.5%
  stimulation of enzyme activity: about 2 fold

## O=C[C@@H](O)[C@@H](O)[C@H](O)[C@H](O)CO [D-Mannose]
[2]; [5]
  Product: D-Mannoic acid

## O=O [oxygen]
[3]
  suitability as electron acceptor: does not work

## O=CC(=O)[C@@H](O)[C@H](O)[C@H](O)CO [D-Glucosone]
[2]; [5]
  Product: 2-Keto-D-gluconic acid

## [Cl][Ti]([Cl])([Cl])[Cl] [TiCl4]
[1]
  Relative activity: 128.0%

## O.O.O.O.O.O.O=S(=O)([O-])[O-].[Ni+2] [NiSO4.6H2O]
[1]
  Relative activity: 74.9%
  effect on enzyme activity (in words): inhibited the enzyme activity

## nicotinamide adenine dinucleotide phosphate [NADP]
[3]; [6]
  suitability as electron acceptor: not suitable electron acceptors

## O=C[C@H](O)[C@@H](O)[C@H](O)CO [D-Xylose]
[2]; [5]
  Product: D-Xylonic acid

## O=C[C@H](O)[C@@H](O)[C@H](O)[C@H](O)CO [D-Glucose]
[2]; [5]
  Product: D-Gluconate

## cytochrome c
[3]; [6]
  suitability as electron acceptor: oxidizes L-sorbosone to 2-KGA in the presence of electron acceptors

## CCN1C(=O)C=CC1=O [N-Ethylmaleimide]
[1]; compound at 1.0 mM, None = 100.0
  Relative activity: 110.8%

## [F-].[Na+] [NaF]
[1]
  Relative activity: 86.7%

## O=S(=O)([O-])[O-].[Cu+2] [CuSO4]
[1]
  Relative activity: 0.0%
  effect on enzyme activity (in words): inhibited the enzyme activity

## [Cl-].[Cl-].[Zn+2] [ZnCl2]
[1]
  Relative activity: 40.3%
  effect on enzyme activity (in words): inhibited the enzyme activity

## O=C(O)c1cc(C(=O)O)c2c(n1)C(=O)C(=O)c1cc(C(=O)O)[nH]c1-2 [PQQ, pyrroloquinoline quinone]
[4]
  effect of cofactor addition on enzyme activity: restored

## [N-]=[N+]=[N-].[Na+] [NaN3]
[1]
  Relative activity: 104.6%

## O=C[C@@H](O)[C@@H](O)[C@H](O)[C@@H](O)CO [L-Gulose]
[2]
  Product: L-Gulonic acid

## O=C1C=CC(=Nc2cc(Cl)c(O)c(Cl)c2)C=C1 [DCIP, 2,6-dichlorophenolindophenol]
[3]; [6]
  suitability as electron acceptor: oxidizes L-sorbosone to 2-KGA in the presence of electron acceptors

## O=C[C@H](O)[C@H](O)[C@H](O)CO [D-Ribose]
[2]; [5]
  Product: D-Ribonic acid

## [Cl-].[Cl-].[Mg+2] [MgCl2]
[1]
  Relative activity: 90.3%

## O=S(=O)([O-])[O-].O=S(=O)([O-])[O-].O=S(=O)([O-])[O-].[Fe+3].[Fe+3] [Fe2(SO4)3.xH2O]
[1]
  Relative activity: 58.9%
  effect on enzyme activity (in words): inhibited the enzyme activity

## O=C[C@H](O)[C@@H](O)[C@@H](O)[C@H](O)CO [D-Galactose]
[2]
  Product: D-Galactonic acid

## O=C[C@@H](O)[C@H](O)[C@H](O)CO [D-Arabinose]
[2]; [5]
  Product: D-Arabonic acid
